Test results published in patent US10363227B2, “Pharmaceutical formulation for use in the treatment and/or prevention of restenosis” (Centre Hospitalier Universitaire Vaudois (C.H.U.V.), priority 2013, dated 2019).

Columns and labels:
[1] = system: human vascular smooth muscle cells (hVSMC); assay: hVSMC viability, MTT test; format: cell-based
[2] = system: Primary hVSMCs; assay: hVSMC migration, silicon culture inserts with cell free gap; format: cell-based, human
Description: (§1) To that end, experiments on the influence of the drug on migration and transmigration of the hVSMC and the expression of different mRNAs of proteins involved in the cellular invasivity were performed.

[3] = system: hVSMCs; assay: mRNA levels in hVSMCs (PAI-1, MMP2, Cx43, tPA, HMOX); format: cell-based, human; details: ATV directly added in the medium, 24 hours incubation
Description: FIG. 6: Analysis of transcripts and proteins of hVSMC. Measurements of various mRNAs levels in hVSMCs in presence of ATV directly added in the medium were performed. PAI-1 and MMP2 and Cx43 mRNA levels were decreased whereas tPA and HMOX transcripts were increased after 24 hours incubation.
as §1

`CC(C)c1c(C(=O)Nc2ccccc2)c(-c2ccccc2)c(-c2ccc(F)cc2)n1CC[C@@H](O)C[C@@H](O)CC(=O)O` [ATV, Atorvastatin] was tested, and the “time of viability reduction” value ([1]; 5 μM ATV) was 72 h, the “time of viability reduction” value ([1]; 10 μM ATV) was 24 h and the “viability of hVSMCs (MTT test)” value ([1]; 5-10 μM ATV, P<0.05 versus cells without ATV) was “significantly reduced”. For the same compound, the “proliferation of human SMC” value ([1]; primary culture at passage 2-5) was “decreased”, the “time at which inhibition of cell migration was observed” value ([2]; 5 μM ATV directly added to the culture medium) was 36 h and the “time at which inhibition of cell migration was observed” value ([2]; 10 μM ATV directly added to the culture medium) was 24 h. For the same compound, the “hVSMC migration into cell free gap” value ([2]; 5 and 10 μM ATV) was “decreased”, the “Cx43 mRNA level” value [3] was “decreased” and the HMOX transcript level [3] was “increased”. For the same compound, the “MMP2 mRNA level” value [3] was “decreased”, the “PAI-1 mRNA level” value [3] was “decreased” and the tPA transcript level [3] was “increased”.
